# Test system: human and porcine aortic smooth muscle cells and human aortic endothelial cells
# Experiment: Cytotoxicity, MTT assay
# Assay type: cell-based
# Settings: up to 250 μM, 24 h at 37° C., without serum
# Text: The ability of the compounds of the present invention to inhibit smooth muscle cell proliferation and modulate endothelial cell growth was established using isolated aortic cells obtained from commercial sources or, for certain species, prepared in-house. Cell lines used in this study include human and porcine aortic smooth muscle cells and human aortic endothelial cells. Human aortic cell lines were obtained from Clonetics Corporation (San Diego).
# Briefly, cells were again grown in 24 well plates to 70-80% confluency and, as before, serum deprived for 24-48 h prior to initiation of the experimental protocol. To insure that the MTT assay monitored toxicity rather than proliferation, cells were incubated with 250 μM drug in fresh medium without serum for 24 h at 37° C. in a humidified CO2 incubator. Upon completion of the compound treatment, MTT (3-[4,5-dimethylthiazol-2-yl]-2,5-diphenyltetrazolium bromide) indicator dye was added for 4 h at 37° C. Cells were then lysed and aliquots from each well were transferred to a 96 well plate for analysis. Absorbance at 570 nm wavelength with a reference wavelength of 630 nm was recorded using an ELISA plate reader. Results are reported as percent viable using no drug (100% viable) and pre-solubilization (0% viable) standards.
smiles,measurement,value
"Cc1ccc(CO[C@@H]2O[C@H](COS(=O)(=O)O)[C@@H](O[C@H]3O[C@H](COS(=O)(=O)O)[C@@H](OS(=O)(=O)O)[C@H](OS(=O)(=O)O)[C@H]3OS(=O)(=O)O)[C@H](OS(=O)(=O)O)[C@H]2OS(=O)(=O)O)cc1NC(=O)c1cccc(NC(=O)Nc2cccc(C(=O)Nc3cc(CO[C@@H]4O[C@H](COS(=O)(=O)O)[C@@H](O[C@H]5O[C@H](COS(=O)(=O)O)[C@@H](OS(=O)(=O)O)[C@H](OS(=O)(=O)O)[C@H]5OS(=O)(=O)O)[C@H](OS(=O)(=O)O)[C@H]4OS(=O)(=O)O)ccc3C)c2)c1 [EXAMPLE 26, STEP 5]",cytotoxicity (MTT),No toxicity was observed up to 250 μM
